Laboratory results taken from ChEMBL document CHEMBL6083275, “Discovery and evaluation of HW161023 as a potent and orally active AAK1 inhibitor” (Bioorg Med Chem Lett, 2024).
Each block holds one compound with its values, some of them ahead of it.

Columns and labels:
[1] = target: AP2-associated protein kinase 1 (Homo sapiens, UniProt Q2M2I8); experiment: Inhibition of AAK1 (unknown origin)
[2] = Clearance in C57BL/6J mouse at 1 mg/kg, iv; assay type: ADME, organism-based; conditions: in vivo
[3] = Apparent volume of distribution in C57BL/6J mouse at 1 mg/kg, iv; assay type: ADME, organism-based; conditions: in vivo, read-out: Vz
[4] = AUC (0 to 24 hrs) in C57BL/6J mouse at 1 mg/kg, iv; assay type: ADME, organism-based; conditions: in vivo
[5] = Half-life in C57BL/6J mouse at 1 mg/kg, iv; assay type: ADME, organism-based; conditions: in vivo
[6] = Cmax in C57BL/6J mouse at 10 mg/kg, po; assay type: ADME, organism-based; conditions: in vivo
[7] = Tmax in C57BL/6J mouse at 10 mg/kg, po; assay type: ADME, organism-based; conditions: in vivo
[8] = AUC (0 to 24 hrs) in C57BL/6J mouse at 10 mg/kg, po; assay type: ADME, organism-based; conditions: in vivo
[9] = Half-life in C57BL/6J mouse at 10 mg/kg, po; assay type: ADME, organism-based; conditions: in vivo
[10] = Oral bioavailability in C57BL/6J mouse at 10 mg/kg; assay type: ADME, organism-based; conditions: in vivo
[11] = Metabolic stability in human liver microsomes assessed as half-life; assay type: ADME, Microsome
[12] = Metabolic stability in mouse liver microsomes assessed as half-life; assay type: ADME, Microsome
[13] = Metabolic stability in rat liver microsomes assessed as half-life; assay type: ADME, Microsome
[14] = Metabolic stability in dog liver microsomes assessed as half-life; assay type: ADME, Canis lupus familiaris, Microsome
[15] = Protein binding in human plasma assessed as unbound fraction; assay type: ADME, cell-free
[16] = Protein binding in mouse plasma assessed as unbound fraction; assay type: ADME, cell-free
[17] = Protein binding in rat plasma assessed as unbound fraction; assay type: ADME, cell-free
[18] = Protein binding in dog plasma assessed as unbound fraction; assay type: ADME, cell-free, Canis lupus familiaris
[19] = target: Voltage-gated inwardly rectifying potassium channel KCNH2 (Homo sapiens, UniProt Q12809); experiment: Inhibition of human ERG by patch clamp assay; assay type: toxicity
Voltage-gated inwardly rectifying potassium channel KCNH2, sequence (Q12809 whole entry): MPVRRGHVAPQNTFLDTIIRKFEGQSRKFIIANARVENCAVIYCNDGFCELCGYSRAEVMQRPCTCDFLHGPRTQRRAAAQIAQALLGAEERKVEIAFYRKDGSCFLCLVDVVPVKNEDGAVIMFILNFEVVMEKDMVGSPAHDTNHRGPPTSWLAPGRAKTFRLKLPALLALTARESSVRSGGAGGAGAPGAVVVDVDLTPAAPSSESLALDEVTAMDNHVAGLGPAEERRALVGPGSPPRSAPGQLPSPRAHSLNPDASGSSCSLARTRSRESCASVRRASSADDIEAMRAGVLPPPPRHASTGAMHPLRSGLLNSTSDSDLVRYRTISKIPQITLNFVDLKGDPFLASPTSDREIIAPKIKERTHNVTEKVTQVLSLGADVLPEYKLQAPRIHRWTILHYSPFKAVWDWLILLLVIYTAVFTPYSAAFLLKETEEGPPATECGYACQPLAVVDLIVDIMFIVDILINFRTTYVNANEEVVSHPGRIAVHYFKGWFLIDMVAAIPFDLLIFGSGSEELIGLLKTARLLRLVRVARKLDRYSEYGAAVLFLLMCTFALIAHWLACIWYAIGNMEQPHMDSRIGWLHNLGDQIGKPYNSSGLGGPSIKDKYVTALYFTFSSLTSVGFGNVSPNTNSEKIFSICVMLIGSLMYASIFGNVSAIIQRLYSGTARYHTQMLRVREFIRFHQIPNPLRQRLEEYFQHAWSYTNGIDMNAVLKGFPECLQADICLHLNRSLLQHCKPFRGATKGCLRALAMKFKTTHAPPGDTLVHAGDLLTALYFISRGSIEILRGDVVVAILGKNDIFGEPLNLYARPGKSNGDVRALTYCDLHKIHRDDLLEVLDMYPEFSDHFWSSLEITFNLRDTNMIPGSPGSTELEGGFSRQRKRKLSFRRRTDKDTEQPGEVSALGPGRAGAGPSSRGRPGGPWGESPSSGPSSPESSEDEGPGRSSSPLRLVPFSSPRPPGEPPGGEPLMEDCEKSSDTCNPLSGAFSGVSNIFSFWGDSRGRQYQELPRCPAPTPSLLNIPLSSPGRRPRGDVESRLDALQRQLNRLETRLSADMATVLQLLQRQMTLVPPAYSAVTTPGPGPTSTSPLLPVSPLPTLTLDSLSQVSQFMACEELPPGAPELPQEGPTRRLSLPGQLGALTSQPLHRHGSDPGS

[20] = Cytotoxicity against human HepG2 cells; assay type: toxicity, cell-based
CYP2C9 = CYP2C9 (Homo sapiens, UniProt P11712); experiment: Inhibition of CYP2C9 (unknown origin) at 10 uM relative to control; assay type: ADME
CYP2C9, sequence (P11712 whole entry): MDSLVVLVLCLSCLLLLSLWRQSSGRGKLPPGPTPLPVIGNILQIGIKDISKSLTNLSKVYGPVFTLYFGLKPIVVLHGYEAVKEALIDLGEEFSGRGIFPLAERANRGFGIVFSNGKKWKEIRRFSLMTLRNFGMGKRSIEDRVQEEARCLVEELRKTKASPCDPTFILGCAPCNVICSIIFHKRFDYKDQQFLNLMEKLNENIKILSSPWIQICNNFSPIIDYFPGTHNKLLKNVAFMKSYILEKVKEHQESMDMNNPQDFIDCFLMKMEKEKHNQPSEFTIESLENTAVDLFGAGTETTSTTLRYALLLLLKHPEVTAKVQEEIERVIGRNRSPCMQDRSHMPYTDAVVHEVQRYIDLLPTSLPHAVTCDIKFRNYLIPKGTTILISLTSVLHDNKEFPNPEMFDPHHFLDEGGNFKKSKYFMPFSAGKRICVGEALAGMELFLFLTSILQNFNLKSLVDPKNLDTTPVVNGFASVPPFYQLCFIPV

CYP2D6 = CYP2D6 (Homo sapiens, UniProt P10635); experiment: Inhibition of CYP2D6 (unknown origin) at 10 uM relative to control; assay type: ADME
CYP2D6, sequence (P10635 whole entry): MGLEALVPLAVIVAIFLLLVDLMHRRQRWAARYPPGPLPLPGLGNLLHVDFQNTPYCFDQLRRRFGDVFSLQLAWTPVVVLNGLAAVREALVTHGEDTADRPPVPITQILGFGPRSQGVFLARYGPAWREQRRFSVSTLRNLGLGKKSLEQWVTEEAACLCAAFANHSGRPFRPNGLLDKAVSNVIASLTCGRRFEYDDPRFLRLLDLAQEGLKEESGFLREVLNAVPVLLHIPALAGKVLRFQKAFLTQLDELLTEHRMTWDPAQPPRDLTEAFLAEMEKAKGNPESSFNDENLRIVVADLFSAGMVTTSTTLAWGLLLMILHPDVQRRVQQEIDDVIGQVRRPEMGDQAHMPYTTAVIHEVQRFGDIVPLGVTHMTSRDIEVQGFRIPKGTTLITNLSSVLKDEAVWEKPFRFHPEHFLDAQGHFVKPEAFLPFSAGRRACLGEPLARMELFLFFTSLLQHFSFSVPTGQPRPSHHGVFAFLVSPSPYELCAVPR

CYP3A4 [21] = target: T1, CYP3A4 (Homo sapiens, UniProt P08684); experiment: Inhibition of CYP3A4 (unknown origin) using midazolam as substrate at 10 uM relative to control; assay type: ADME; conditions: probe midazolam
T1 sequence (P08684 whole entry): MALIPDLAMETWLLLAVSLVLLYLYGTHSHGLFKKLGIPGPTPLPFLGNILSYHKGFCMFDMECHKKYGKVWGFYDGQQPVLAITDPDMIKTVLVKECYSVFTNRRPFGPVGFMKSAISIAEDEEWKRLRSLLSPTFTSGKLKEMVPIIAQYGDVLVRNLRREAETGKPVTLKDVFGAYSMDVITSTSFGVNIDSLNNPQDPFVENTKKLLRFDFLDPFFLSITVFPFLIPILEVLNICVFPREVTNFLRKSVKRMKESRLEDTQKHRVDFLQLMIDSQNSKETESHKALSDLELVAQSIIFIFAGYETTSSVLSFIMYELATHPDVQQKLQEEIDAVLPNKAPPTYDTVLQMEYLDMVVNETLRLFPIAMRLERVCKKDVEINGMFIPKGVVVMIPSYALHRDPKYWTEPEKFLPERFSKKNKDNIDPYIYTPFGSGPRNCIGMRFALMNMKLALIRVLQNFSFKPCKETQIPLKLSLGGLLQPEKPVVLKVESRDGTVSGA

CYP3A4 [22] = target: T1, CYP3A4; experiment: Inhibition of CYP3A4 (unknown origin) using testosterone as substrate at 10 uM relative to control; assay type: ADME; conditions: probe testosterone
[23] = Ratio of AUC (0 to 24 hrs) in C57BL/6J mouse brain to plasma; assay type: ADME; conditions: read-out: Ratio AUC
[24] = AUC (0 to 24 hrs) in rat at 10 mg/kg, po; assay type: ADME, organism-based; conditions: in vivo
[25] = Tmax in rat at 10 mg/kg, po; assay type: ADME, organism-based; conditions: in vivo
[26] = Oral bioavailability in rat at 10 mg/kg; assay type: ADME, organism-based; conditions: in vivo
[27] = Apparent volume of distribution in rat at 1 mg/kg, iv; assay type: ADME, organism-based; conditions: in vivo, read-out: Vz
[28] = Half-life in rat at 1 mg/kg, iv; assay type: ADME, organism-based; conditions: in vivo
[29] = Clearance in rat at 1 mg/kg, iv; assay type: ADME, organism-based; conditions: in vivo
[30] = AUC (0 to 24 hrs) in dog at 5 mg/kg, po; assay type: ADME, organism-based, Canis lupus familiaris; conditions: in vivo
[31] = Tmax in dog at 5 mg/kg, po; assay type: ADME, organism-based, Canis lupus familiaris; conditions: in vivo
[32] = Oral bioavailability in dog at 5 mg/kg; assay type: ADME, organism-based, Canis lupus familiaris; conditions: in vivo
[33] = Apparent volume of distribution in dog at 1 mg/kg, iv; assay type: ADME, organism-based, Canis lupus familiaris; conditions: in vivo, read-out: Vz
[34] = Half-life in dog at 1 mg/kg, iv; assay type: ADME, organism-based, Canis lupus familiaris; conditions: in vivo
[35] = Clearance in dog at 1 mg/kg, iv; assay type: ADME, organism-based, Canis lupus familiaris; conditions: in vivo
[36] = Metabolic stability in hepatocytes (unknown origin) assessed as half-life; assay type: ADME, cell-based, Hepatocyte
Rattus norvegicus = experiment: Analgesic activity in sciatic nerved CCI-induced neuropathic pain rat model assessed as reduction in mechanical hyperalgesia at 10 mg/kg, po administered from day 14 post CCI-surgery and measured after 3.5 to 5.5 hrs by Von Frey test; assay type: functional, organism-based; conditions: time 3.5-5.5 hrs
[37] = target: T2, Cyclin-G-associated kinase (Homo sapiens) (UniProt O14976); experiment: Inhibition of wildtype GAK (unknown origin) at 1 uM relative to control
T2 sequence (whole entry): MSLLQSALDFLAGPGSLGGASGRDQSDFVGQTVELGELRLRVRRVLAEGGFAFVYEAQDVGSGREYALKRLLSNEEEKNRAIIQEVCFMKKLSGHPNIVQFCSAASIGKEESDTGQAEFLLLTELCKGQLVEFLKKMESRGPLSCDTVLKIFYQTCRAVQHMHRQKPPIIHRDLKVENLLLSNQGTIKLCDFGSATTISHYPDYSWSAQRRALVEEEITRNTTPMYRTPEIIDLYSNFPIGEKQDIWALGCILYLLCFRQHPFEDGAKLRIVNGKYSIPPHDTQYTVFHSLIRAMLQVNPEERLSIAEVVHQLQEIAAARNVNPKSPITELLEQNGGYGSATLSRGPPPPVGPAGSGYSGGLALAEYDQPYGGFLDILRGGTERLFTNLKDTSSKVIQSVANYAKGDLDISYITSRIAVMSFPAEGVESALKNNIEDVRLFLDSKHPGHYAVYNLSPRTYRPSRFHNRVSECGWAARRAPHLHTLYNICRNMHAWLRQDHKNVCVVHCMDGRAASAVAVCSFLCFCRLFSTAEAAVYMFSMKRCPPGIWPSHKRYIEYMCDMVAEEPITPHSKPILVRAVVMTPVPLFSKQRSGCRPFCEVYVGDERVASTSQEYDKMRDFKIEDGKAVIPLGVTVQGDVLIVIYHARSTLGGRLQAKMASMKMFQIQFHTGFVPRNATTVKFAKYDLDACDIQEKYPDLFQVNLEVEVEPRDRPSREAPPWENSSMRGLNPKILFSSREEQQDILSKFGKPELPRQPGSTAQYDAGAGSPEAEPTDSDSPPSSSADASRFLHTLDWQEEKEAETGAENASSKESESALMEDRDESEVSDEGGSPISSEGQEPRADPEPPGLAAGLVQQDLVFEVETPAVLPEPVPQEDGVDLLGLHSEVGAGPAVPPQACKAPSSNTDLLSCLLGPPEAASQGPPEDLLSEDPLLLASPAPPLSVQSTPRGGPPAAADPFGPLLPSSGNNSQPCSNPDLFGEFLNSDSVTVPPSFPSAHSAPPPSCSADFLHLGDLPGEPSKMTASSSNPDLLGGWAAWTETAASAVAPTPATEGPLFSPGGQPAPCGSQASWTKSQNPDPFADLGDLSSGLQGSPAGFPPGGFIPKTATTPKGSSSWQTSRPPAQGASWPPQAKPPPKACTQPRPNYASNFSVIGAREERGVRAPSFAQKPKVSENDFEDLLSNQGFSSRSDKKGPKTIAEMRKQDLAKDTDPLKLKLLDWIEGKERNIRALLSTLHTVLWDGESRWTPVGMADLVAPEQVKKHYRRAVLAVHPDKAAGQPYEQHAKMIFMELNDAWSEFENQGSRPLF

[38] = target: MAP kinase-interacting serine/threonine-protein kinase 1 (Homo sapiens) (UniProt Q9BUB5); experiment: Inhibition of wildtype MNK1 (unknown origin) at 1 uM relative to control
MAP kinase-interacting serine/threonine-protein kinase 1 (Homo sapiens), sequence (Q9BUB5 whole entry, looked up): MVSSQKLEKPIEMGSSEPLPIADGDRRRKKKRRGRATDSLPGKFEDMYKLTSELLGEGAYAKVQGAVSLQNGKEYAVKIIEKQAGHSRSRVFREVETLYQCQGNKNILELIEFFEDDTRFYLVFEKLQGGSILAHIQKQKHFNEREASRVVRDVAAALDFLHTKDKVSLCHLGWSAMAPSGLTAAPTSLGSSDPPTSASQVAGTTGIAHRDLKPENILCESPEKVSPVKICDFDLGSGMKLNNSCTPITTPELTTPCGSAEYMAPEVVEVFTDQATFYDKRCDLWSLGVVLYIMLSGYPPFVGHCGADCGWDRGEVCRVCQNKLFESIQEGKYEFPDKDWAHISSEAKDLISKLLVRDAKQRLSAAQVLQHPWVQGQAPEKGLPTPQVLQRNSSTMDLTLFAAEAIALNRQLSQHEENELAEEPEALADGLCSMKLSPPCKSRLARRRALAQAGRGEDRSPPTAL

[39] = target: MAP kinase-interacting serine/threonine-protein kinase 2 (Homo sapiens) (UniProt Q9HBH9); experiment: Inhibition of wildtype MNK2 (unknown origin) at 1 uM relative to control
MAP kinase-interacting serine/threonine-protein kinase 2 (Homo sapiens), sequence (Q9HBH9 whole entry, looked up): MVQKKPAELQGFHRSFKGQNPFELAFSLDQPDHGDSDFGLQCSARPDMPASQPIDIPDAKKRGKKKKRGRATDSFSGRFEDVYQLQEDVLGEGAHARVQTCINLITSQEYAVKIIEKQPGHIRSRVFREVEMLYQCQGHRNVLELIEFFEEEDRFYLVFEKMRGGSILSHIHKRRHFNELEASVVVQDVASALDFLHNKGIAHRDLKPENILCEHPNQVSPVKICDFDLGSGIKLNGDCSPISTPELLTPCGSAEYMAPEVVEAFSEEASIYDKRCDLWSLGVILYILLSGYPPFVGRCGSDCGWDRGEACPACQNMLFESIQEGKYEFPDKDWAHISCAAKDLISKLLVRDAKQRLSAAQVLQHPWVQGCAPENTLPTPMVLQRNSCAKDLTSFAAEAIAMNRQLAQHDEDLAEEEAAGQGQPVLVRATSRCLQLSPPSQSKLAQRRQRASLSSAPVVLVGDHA

[40] = target: T3, cGMP-dependent protein kinase 2 (Homo sapiens) (UniProt Q13237); experiment: Inhibition of wildtype CGK2 (unknown origin) at 1 uM relative to control
T3 sequence (whole entry): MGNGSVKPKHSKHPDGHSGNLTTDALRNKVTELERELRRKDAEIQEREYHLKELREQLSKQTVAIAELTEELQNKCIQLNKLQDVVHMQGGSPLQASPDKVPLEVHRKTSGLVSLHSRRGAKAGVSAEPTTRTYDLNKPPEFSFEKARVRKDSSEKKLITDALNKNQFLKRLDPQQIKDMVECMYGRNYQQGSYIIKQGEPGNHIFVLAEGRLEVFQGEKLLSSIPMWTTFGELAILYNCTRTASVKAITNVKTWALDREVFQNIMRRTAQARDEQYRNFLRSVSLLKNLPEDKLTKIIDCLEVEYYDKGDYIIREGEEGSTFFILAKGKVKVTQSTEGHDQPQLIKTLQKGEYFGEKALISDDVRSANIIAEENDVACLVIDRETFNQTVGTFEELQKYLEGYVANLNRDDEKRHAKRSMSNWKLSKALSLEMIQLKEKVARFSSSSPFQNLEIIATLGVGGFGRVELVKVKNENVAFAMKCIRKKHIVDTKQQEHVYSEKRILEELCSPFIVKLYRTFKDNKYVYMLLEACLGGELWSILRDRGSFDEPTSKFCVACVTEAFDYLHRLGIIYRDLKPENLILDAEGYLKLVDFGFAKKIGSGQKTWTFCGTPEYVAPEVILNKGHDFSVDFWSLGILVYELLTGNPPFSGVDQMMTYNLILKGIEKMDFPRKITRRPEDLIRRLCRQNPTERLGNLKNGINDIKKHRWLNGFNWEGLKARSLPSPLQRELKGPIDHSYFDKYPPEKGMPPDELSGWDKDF

[41] = target: Citron Rho-interacting kinase (Homo sapiens) (UniProt O14578); experiment: Inhibition of wildtype CRIK (unknown origin) at 1 uM relative to control
[42] = target: BMP-2-inducible protein kinase (Homo sapiens) (UniProt Q9NSY1); experiment: Inhibition of wildtype BIKE (unknown origin) at 1 uM relative to control

AP2-associated protein kinase 1, sequence (Q2M2I8 whole entry): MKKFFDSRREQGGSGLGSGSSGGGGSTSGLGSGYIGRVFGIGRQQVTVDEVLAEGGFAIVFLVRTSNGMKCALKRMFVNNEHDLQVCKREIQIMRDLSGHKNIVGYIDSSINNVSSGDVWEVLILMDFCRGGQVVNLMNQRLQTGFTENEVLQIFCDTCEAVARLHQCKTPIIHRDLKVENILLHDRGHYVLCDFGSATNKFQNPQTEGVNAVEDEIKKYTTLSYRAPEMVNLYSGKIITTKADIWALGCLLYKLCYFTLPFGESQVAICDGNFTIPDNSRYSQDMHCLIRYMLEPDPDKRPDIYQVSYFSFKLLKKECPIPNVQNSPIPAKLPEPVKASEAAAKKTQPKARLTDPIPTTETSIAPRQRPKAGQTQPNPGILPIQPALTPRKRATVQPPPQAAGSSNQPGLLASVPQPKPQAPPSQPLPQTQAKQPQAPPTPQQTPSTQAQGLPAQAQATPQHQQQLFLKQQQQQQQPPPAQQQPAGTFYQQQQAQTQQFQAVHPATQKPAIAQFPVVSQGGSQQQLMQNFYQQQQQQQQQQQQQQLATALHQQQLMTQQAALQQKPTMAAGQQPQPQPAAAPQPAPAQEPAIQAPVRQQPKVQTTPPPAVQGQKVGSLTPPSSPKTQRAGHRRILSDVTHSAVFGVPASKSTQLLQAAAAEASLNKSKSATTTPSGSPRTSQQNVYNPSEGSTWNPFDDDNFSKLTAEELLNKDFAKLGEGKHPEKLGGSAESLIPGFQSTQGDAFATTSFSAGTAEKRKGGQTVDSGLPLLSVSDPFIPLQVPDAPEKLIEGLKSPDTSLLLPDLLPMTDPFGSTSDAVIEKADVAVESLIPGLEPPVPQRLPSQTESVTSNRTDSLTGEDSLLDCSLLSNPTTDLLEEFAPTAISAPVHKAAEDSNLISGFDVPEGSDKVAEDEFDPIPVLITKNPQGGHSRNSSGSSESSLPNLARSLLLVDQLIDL

SMILES: CC(C)C[C@](C)(N)COc1ccc(-c2ccnc(C(F)F)c2)nc1C(F)F [PILAVAPADIN]
IC50 [1]: 0.005 µM
clearance [2]: 12.2 mL/min/kg
Vd [3]: 18 L/kg
AUC(0-t) [4]: 892 ng·h/mL
half-life [5]: 17.3 h
Cmax [6]: 718 ng/mL
Tmax [7]: 1.17 h
AUC(0-t) [8]: 9150 ng·h/mL
half-life [9]: 19.6 h
bioavailability [10]: 103%
half-life [11]: 2.21 h
half-life [12]: 2.61 h
half-life [13]: 1.61 h
half-life [14]: 1.11 h
fraction unbound [15]: 0.0875
fraction unbound [16]: 0.02
fraction unbound [17]: 0.0894
fraction unbound [18]: 0.0417
IC50 [19]: 3.4 µM
IC50 [20]: 9.5 µM
inhibition at 10 µM (CYP2C9): < 20%
inhibition at 10 µM (CYP2D6): < 20%
inhibition at 10 µM (CYP3A4 [21]): < 20%
inhibition at 10 µM (CYP3A4 [22]): < 20%
Kp [23]: 13.9
AUC(0-t) [24]: 3790 ng·h/mL
Tmax [25]: 6.7 h
bioavailability [26]: 77%
Vd [27]: 25 L/kg
half-life [28]: 9.9 h
clearance [29]: 28.3 mL/min/kg
AUC(0-t) [30]: 4740 ng·h/mL
Tmax [31]: 2.3 h
bioavailability [32]: 116%
Vd [33]: 5.3 L/kg
half-life [34]: 3.2 h
clearance [35]: 20 mL/min/kg

SMILES: Cc1cnc2c(-c3ccnc(C(F)F)c3)ccc(OC[C@@](C)(N)CC(C)C)n12
IC50 [1]: > 0.02 µM

SMILES: CC(C)C[C@](C)(N)COc1ccc(-c2ccnc(C(F)F)c2)c2cncn12
Cmax [6]: 407 ng/mL
Tmax [7]: 0.8 h
AUC(0-t) [8]: 2340 ng·h/mL
half-life [9]: 3.2 h

Further lines, with some results ahead:

IC50 [1]: > 0.02 µM
SMILES: CC(C)C[C@](C)(N)COc1ccc(-c2ccnc(C(F)F)c2)c2nncn12

IC50 [1]: > 0.02 µM
SMILES: Cc1cn2c(OC[C@@](C)(N)CC(C)C)ccc(-c3ccnc(C(F)F)c3)c2n1

clearance [2]: 11.7 mL/min/kg
Vd [3]: 18 L/kg
half-life [5]: 17 h
Tmax [7]: 1.2 h
AUC(0-t) [8]: 9150 ng·h/mL
bioavailability [10]: 103%
half-life [11]: 1.47 h
half-life [12]: 0.717 h
half-life [13]: 0.583 h
half-life [14]: 3.07 h
fraction unbound [15]: 0.193
fraction unbound [16]: 0.128
fraction unbound [17]: 0.185
fraction unbound [18]: 0.129
inhibition at 10 µM (CYP2C9): < 20%
inhibition at 10 µM (CYP2D6): < 20%
inhibition at 10 µM (CYP3A4 [21]): < 20%
inhibition at 10 µM (CYP3A4 [22]): < 20%
half-life [36]: 46.4 h
AUC(0-t) [24]: 4640 ng·h/mL
Tmax [25]: 5.3 h
bioavailability [26]: 118%
Vd [27]: 25 L/kg
half-life [28]: 10.3 h
clearance [29]: 31.7 mL/min/kg
AUC(0-t) [30]: 2270 ng·h/mL
Tmax [31]: 1 h
bioavailability [32]: 140%
Vd [33]: 14 L/kg
half-life [34]: 3.3 h
clearance [35]: 48.3 mL/min/kg
inhibition [37]: 97%
inhibition [38]: 91%
inhibition [39]: 88%
inhibition [40]: 65%
inhibition [41]: 60%
inhibition [42]: 39%
SMILES: CC(C)C[C@](C)(N)COc1ccc(-c2ccnc(C(F)F)c2)c2nccn12
IC50 [19]: 11.9 µM
IC50 [20]: 51 µM
Activity (Rattus norvegicus): Active; Compound Exhibited Comparable Efficacy To Lx9211
